Assays:
AURORA-A = biological target: T1, AURORA-A (Homo sapiens, UniProt O14965); assay: Kinome profiling AURORA-A; assay type: biochemical; conditions: read-out: Inhibitory activity AURORA-A; for inhibition at 0.1 µM: 100 nM
T1 sequence (O14965 1-403): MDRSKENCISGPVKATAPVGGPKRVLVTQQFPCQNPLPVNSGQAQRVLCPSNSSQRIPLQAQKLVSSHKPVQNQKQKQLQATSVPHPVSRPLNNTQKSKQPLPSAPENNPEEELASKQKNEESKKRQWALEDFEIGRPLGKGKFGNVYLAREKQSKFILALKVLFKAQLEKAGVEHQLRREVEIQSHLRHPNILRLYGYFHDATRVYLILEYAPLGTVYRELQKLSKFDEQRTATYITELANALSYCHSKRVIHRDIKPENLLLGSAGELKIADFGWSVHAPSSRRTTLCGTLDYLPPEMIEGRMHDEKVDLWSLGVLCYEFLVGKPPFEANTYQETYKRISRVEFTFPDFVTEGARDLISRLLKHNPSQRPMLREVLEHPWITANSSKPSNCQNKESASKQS
Procedure: (§1) . The kinome-wide selectivity was determined following the methods previously reported by Mohedas et al., ACS Chem Biol 2013, 8, 1291-1302 and Sanvitale et al., PLoS One 2013, 8, e62721.

CHEK1 = biological target: T2, CHEK1 (Homo sapiens, UniProt O14757); assay: Kinome profiling CHEK1; assay type: biochemical; conditions: read-out: Inhibitory activity CHEK1; for inhibition at 0.1 µM: 100 nM
T2 sequence (O14757 1-476): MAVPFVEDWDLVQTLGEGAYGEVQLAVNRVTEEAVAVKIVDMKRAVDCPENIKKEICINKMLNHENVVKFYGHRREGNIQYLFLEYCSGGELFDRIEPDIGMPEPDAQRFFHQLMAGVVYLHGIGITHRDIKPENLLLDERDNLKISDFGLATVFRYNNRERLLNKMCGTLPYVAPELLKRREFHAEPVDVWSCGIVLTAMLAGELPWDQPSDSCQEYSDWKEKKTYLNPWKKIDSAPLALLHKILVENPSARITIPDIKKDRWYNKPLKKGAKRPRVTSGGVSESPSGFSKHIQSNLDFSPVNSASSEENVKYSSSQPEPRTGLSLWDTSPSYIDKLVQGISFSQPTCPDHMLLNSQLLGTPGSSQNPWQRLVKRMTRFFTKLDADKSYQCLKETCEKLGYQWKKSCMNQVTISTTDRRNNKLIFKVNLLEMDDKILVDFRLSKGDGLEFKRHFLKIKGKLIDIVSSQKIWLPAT
Procedure: as §1

SRMS = SRMS (Homo sapiens, UniProt Q9H3Y6); assay: Kinome profiling SRMS; assay type: biochemical; conditions: read-out: Inhibitory activity SRMS; for inhibition at 0.1 µM: 100 nM
Procedure: as §1

AKT2 = AKT2 (Homo sapiens, UniProt P31751); assay: Kinome profiling AKT2; assay type: biochemical; conditions: read-out: Inhibitory activity AKT2; for inhibition at 0.1 µM: 100 nM
Procedure: as §1

CDK2/cyclinE = CDK2/cyclinE (Homo sapiens, UniProt P24941); assay: Kinome profiling CDK2/cyclinE; assay type: biochemical; conditions: read-out: Inhibitory activity CDK2/cyclinE; for inhibition at 0.1 µM: 100 nM
Procedure: as §1

AURORA-B = AURORA-B (Homo sapiens, UniProt Q96GD4); assay: Kinome profiling AURORA-B; assay type: biochemical; conditions: read-out: Inhibitory activity AURORA-B; for inhibition at 0.1 µM: 100 nM
Procedure: as §1

SGK2 = biological target: T3, SGK2 (Homo sapiens, UniProt Q9HBY8); assay: Kinome profiling SGK2; assay type: biochemical; conditions: read-out: Inhibitory activity SGK2; for inhibition at 0.1 µM: 100 nM
T3 sequence (Q9HBY8 1-367): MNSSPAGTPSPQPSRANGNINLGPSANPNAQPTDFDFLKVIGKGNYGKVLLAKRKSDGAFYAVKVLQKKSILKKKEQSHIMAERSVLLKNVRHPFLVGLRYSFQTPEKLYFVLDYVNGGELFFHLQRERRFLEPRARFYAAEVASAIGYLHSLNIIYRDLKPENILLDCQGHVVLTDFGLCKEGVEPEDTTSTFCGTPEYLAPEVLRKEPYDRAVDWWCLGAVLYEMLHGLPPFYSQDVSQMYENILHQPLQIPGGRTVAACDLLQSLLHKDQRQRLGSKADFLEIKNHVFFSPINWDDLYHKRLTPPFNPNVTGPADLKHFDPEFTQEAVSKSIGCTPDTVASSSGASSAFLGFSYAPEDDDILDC
Procedure: as §1

FES = FES (Homo sapiens, UniProt P07332); assay: Kinome profiling FES; assay type: biochemical; conditions: read-out: Inhibitory activity FES; for inhibition at 0.1 µM: 100 nM
Procedure: as §1

ALK2 = biological target: T4, ALK2 (Homo sapiens, UniProt Q04771, Q207D); assay: Thermal shift kinase assay ALK2; assay type: binding; conditions: for ΔTm at 10 µM: 10 μM inhibitor; for ΔTmDiff.: ALK2 minus ALK5; for ΔT ALK2: Table 6; for ΔT Diff.: Table 6, ALK2 minus ALK5
T4 construct: His tag (TEV-cleavable) (N, cleaved yes); made in house; host or cells: Sf9 insect cells (baculovirus)
T4 sequence (Q04771 201-499 Q207D): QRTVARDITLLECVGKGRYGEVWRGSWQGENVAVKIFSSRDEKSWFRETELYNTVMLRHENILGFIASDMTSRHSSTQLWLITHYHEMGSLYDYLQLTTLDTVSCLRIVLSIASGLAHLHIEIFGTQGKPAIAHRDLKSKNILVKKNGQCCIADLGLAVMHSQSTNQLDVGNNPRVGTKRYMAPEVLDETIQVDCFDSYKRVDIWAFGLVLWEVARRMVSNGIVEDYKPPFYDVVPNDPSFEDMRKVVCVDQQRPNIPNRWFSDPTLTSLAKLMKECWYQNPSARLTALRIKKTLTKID
Procedure: Thermal melting experiments were performed using a Real Time PCR machine Mx3005p (Stratagene) with a protein concentration of 1-2 μM and 10 μM inhibitor as described by Niesen et al., Nat Protoc 2007, 2, 2212-21. Recombinant human kinases for DSF screening were prepared by SGC using the published methods of Sanvitale et al., PLoS One 2013, 8, e62721. The potency and selectivity of certain compounds of the invention based on thermal shift kinase and ligand induced transcriptional activity assays are shown in Table 2.

CSK = CSK (Homo sapiens, UniProt P41240); assay: Kinome profiling CSK; assay type: biochemical; conditions: read-out: Inhibitory activity CSK; for inhibition at 0.1 µM: 100 nM
Procedure: as §1

Chain of AKT2 (P31751 whole entry): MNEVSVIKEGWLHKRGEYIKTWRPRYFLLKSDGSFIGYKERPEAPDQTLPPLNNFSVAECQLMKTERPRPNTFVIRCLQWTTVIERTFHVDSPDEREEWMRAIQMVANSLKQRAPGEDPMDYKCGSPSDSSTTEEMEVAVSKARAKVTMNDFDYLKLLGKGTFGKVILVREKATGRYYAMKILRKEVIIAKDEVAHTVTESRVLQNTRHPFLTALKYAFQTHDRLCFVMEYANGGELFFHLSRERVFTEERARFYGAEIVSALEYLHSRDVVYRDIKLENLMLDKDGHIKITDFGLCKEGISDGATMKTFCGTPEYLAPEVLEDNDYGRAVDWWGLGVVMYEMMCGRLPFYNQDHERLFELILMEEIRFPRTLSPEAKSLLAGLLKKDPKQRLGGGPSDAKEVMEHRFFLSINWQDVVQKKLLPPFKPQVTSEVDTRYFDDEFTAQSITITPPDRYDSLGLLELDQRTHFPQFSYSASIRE
Chain of CSK (P41240 whole entry): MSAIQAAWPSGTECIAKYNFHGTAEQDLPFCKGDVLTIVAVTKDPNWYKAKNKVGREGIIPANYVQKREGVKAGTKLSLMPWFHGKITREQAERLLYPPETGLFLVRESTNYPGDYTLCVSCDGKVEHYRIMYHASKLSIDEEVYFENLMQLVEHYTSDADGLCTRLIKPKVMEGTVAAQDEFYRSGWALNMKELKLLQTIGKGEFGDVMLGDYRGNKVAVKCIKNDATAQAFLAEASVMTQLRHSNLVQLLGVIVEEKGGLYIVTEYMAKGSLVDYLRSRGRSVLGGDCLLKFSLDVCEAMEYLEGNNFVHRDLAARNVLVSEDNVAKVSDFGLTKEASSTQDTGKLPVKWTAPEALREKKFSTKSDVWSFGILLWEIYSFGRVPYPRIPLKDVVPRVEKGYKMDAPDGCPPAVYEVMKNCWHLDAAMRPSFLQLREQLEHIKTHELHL
Chain of AURORA-B (Q96GD4 whole entry): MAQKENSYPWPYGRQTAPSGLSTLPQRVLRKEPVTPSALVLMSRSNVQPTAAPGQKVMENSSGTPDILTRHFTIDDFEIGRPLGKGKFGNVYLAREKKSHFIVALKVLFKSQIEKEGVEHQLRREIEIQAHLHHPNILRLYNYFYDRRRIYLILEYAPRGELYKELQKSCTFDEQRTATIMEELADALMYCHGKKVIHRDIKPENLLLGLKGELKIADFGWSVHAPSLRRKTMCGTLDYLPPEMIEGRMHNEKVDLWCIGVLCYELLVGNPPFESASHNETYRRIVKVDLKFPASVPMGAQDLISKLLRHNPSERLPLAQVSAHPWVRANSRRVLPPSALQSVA
Chain of FES (P07332 whole entry): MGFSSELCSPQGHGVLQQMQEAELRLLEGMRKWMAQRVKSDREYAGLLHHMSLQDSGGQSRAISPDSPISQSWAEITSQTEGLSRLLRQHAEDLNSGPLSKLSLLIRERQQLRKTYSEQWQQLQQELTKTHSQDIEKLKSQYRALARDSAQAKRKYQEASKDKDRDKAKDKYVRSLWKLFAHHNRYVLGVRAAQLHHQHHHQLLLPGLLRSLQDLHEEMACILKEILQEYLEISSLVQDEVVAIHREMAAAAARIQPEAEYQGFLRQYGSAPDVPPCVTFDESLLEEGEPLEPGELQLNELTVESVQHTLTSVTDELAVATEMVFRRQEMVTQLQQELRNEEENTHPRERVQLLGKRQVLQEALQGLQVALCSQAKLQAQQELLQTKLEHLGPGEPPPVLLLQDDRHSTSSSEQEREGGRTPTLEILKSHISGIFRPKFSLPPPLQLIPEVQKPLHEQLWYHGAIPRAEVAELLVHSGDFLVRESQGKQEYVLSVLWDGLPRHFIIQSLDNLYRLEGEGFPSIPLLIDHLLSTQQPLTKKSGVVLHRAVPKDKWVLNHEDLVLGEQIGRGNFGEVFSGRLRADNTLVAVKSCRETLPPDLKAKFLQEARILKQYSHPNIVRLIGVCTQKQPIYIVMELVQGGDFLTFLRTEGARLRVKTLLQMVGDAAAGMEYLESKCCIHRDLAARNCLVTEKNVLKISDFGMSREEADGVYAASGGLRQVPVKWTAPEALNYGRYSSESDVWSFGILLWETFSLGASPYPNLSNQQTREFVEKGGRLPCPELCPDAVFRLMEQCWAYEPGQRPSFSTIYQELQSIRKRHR
Chain of SRMS (Q9H3Y6 whole entry): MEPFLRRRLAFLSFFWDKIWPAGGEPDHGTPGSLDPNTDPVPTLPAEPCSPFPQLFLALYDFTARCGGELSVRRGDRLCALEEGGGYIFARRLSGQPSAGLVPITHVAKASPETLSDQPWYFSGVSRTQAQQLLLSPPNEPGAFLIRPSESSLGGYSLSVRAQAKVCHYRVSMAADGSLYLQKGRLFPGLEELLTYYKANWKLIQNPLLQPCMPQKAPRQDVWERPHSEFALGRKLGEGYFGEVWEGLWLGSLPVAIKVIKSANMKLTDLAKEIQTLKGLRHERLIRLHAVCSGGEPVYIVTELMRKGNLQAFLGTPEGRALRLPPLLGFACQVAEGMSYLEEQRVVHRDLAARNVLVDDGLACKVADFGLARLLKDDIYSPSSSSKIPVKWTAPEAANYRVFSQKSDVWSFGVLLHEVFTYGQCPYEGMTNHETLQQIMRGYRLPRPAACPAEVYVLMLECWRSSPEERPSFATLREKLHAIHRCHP

Compound	inhibition at 0.1 µM (AURORA-A)	inhibition at 1 µM (AURORA-A)	inhibition at 0.1 µM (CHEK1)	inhibition at 1 µM (CHEK1)	inhibition at 0.1 µM (SRMS)	inhibition at 1 µM (SRMS)	inhibition at 0.1 µM (AKT2)	inhibition at 1 µM (AKT2)	inhibition at 0.1 µM (CDK2/cyclinE)	inhibition at 1 µM (CDK2/cyclinE)	inhibition at 0.1 µM (AURORA-B)	inhibition at 1 µM (AURORA-B)	inhibition at 0.1 µM (SGK2)	inhibition at 1 µM (SGK2)	inhibition at 0.1 µM (FES)	inhibition at 1 µM (FES)	ΔTm at 10 µM (ALK2)	ΔTmDiff. (ALK2)	ΔT ALK2 (ALK2)	ΔT Diff. (ALK2)	other results
COc1cc(-c2cc(-c3ccc(N4CCNCC4)cc3)cnc2C)cc(OC)c1OC [Compound 10, 1-(4-(6-methyl-5-(3,4,5-trimethoxyphenyl)pyridin-3-yl)phenyl)piperazine]	2%	3%	4%	-3%	0%	1%	-1%	-1%	-1%	3%	2%	3%	1%	-1%	7%	9%	13.7 °C	4.0	13.7 °C	4.0 °C	inhibition at 0.1 µM (CSK): 4%; inhibition at 1 µM (CSK): 5%
COc1cc(-c2cc(-c3ccc(N4CCNCC4)cc3)cnc2N)cc(OC)c1OC [Compound 15, 5-(4-(piperazin-1-yl)phenyl)-3-(3,4,5-trimethoxyphenyl)pyridin-2-amine]	2%	3%	2%	6%	11%	33%	2%	2%	1%	2%	3%	8%	2%	3%	3%	4%	15.1 °C	1.2	15.1 °C	1.2 °C	inhibition at 0.1 µM (CSK): 10%; inhibition at 1 µM (CSK): 36%

— US20170190705A1, “Compositions and Methods for Inhibiting BMP” (THE BRIGHAM AND WOMAN'S HOSPITAL, INC., priority 2014, published 2017)
